Laboratory results from patent publication US20080153822A1, “Methods of treating pain” (priority 2006, published 2008).
pIC50: −log10 of the molar value. Values belong to the compound of their own block, whether it stands above or below them.

Columns and labels:
CDKs = conditions: Current Opinion in Pharmacology, 2003(3): 362-370; cited from earlier work
CDK9/CycT = molecular target: T1, CDK9/CycT (Homo sapiens, UniProt P50750); experiment: In vitro kinase inhibition assay; format: biochemical; conditions: 1 μM ATP, 33P FlashPlate assay
T1 construct: host or cells: Sf9 insect cells, baculovirus
Procedure: IC50 profiles of the compounds according to general Formula I or Ia of the present invention can be determined for cyclin-dependent kinases CDK2/CycA, CDK4/CycD1, CDK6/CycD1 and CDK9/CycT in enzymatic kinase inhibition assays in vitro. IC50 values as obtained in these assays are used for evaluating the specific selectivity and potency of the compounds with respect to CDK9 inhibition.
Compounds are used as 1×10^−2 M stock solutions in 100% DMSO, 100 μl each in column 2 of three 96-well V-shaped microtiterplates (in the following, said plates are referred to as “master plates”). […]
For the determination of inhibitory profiles, the following 4 protein kinases are used: CDK2/CycA, CDK4/CycD1, CDK6/CycD1 and CDK9/CycT. […] The purity of each kinase is determined by SDS-PAGE/silver staining and the identity of each kinase is verified by western blot analysis with kinase specific antibodies or by mass spectroscopy. […]
Reaction mixtures are incubated at 30° C. for 80 minutes. […] Incorporation of ^33P is determined with a microplate scintillation counter (Microbeta, Wallac).
The median value of the counts in column 1 (n=8) of each assay plate is defined as “low control”. This value reflects unspecific binding of radioactivity to the plate in the absence of a protein kinase but in the presence of the substrate. […]

TNF α = experiment: In vitro human whole blood assay (cytokine inhibition); format: cell-based; conditions: for TNF α levels reduced: human whole blood
Procedure: […]. For this purpose, human heparinised whole blood from healthy donors was diluted 1:5 with medium (RPMI 1640, e.g. ATCC #30-2001, supplemented with 4.5 g/L glucose, 4 mM L-glutamine, pyruvate, 1250 U sodium-heparin and 1% Penicillin/Streptomycin), incubated with the anti-inflammatory compound or solvent for 30-60 minutes and then stimulated with 20 ng/ml to 1 μg/ml LPS or SEB for 3 to 48 hours. Supernatants were harvested and analysed for cytokine content, e.g. by ELISA.

TNFα = experiment: LPS in vivo assay (model of cytokine repression in vivo); set-up: species or system mice; conditions: 30 mg/kg single p.o. dose 30 min prior to LPS; blood serum 90 min after LPS; ELISA; FIG. 3
Procedure: For the LPS induced model of septic shock, mice receive an intraperitoneal (i.p.) injection of 30 μg bacterial Lipopolysaccharide (LPS; L2630 SIGMA) in saline. Said LPS-mediated initiation of the inflammatory signalling cascade results in increasing blood serum concentrations of cytokines such as e.g. TNFα, IL-6 and IL1β. Blood can be taken from these animals at defined time points. Thereafter, serum will be separated and the samples can be stored at −80° C. until cytokine concentrations are measured using commercial ELISA assays. (A L Moreira et al., Braz J Med Biol Res 1997; 30:1199-1207).
Wildtype mice (strain C3HeB/FeJ) (age, sex and weight matched) were injected with 30 μg LPS (SIGMA) intraperitoneally. 90 minutes after LPS administration, these animals were anaesthetized with 0.1 ml/10 g bodyweight Ketamine-Rompun (50/20 mg/ml) and blood for serum preparation was taken via cardiac puncture.
Pharmacological treatment groups (n=4) of LPS mice received per os (p.o.) injections of CDK-inhibiting compounds or the vehicle (negative control), respectively. […]
Serum concentrations of TNF alpha and IL6 within the samples were measured by using commercial ELISA Kits (Natutec) according to the manufacturers instructions. […]

[1] = tested on: LPS induced THP-1 macrophages; experiment: In vitro THP-1 assay (LPS-induced cytokine expression); format: cell-based, human
Procedure: The human THP-1 cell line can be utilized as an in vitro model of cytokine expression as mediated by Lipopolysaccharide (LPS) or Tumor Necrosis Factorα [TNFα].
Monocytic THP-1 cells (ATCC; TIB-202) can be differentiated into macrophage-like cells expressing pro-inflammatory cytokines like TNFα, IL6 and IL10 upon induction with LPS or by TNFα (autocrine induction) itself.
THP-1 cells are grown in modified RPMI-1640 medium (ATCC, Cat. No. 30-2001) supplemented with 10% FCS and 1% Pen/Strep. For cytokine inhibition assays, cells are seeded at a density of 5×10^5 cells/ml into 6-well plates in standard growth medium supplemented with 100 ng/ml PMA (Sigma, P1585) to induce differentiation into macrophage-like cells. After 24 hours, the medium is replaced with standard growth medium (without PMA) and the cells are incubated for another 48 hours to complete differentiation.
After 72 h of differentiation, the medium is replaced with serum free growth medium, and CDK-inhibiting compounds as well as reference compounds such as positive and negative controls, each dissolved in DMSO are added at concentrations ranging from 0.5 to 5 μM (final concentration of DMSO in the well is 0.1%). Cells are incubated for 60 min with compounds prior to stimulation with 100 ng/ml LPS (Sigma, L2630) for another 4-48 hours. Supernatants are collected and assayed immediately for cytokine expression, e.g. for TNFα, IL-6 and IL-1β using commercially available sandwich ELISA assays (eBioscience, Cat. No 88-7346, 88-7066, 88-7010) or kept frozen at […] until evaluation.
Concentrations of TNFα, IL6 and IL1β within the cell culture supernatants are measured by using commercial ELISA Kits (eBioscience) according to the manufacturer's instructions.
Compound #133 was administered to differentiated THP-1 cells in triplicates as described above (see section 2.). After 60 min of pre-incubation with test or reference compound (a p38 inhibitor and an IKK-inhibitor, respectively) alone, cells were stimulated with LPS. […]

T1 sequence (P50750 whole entry): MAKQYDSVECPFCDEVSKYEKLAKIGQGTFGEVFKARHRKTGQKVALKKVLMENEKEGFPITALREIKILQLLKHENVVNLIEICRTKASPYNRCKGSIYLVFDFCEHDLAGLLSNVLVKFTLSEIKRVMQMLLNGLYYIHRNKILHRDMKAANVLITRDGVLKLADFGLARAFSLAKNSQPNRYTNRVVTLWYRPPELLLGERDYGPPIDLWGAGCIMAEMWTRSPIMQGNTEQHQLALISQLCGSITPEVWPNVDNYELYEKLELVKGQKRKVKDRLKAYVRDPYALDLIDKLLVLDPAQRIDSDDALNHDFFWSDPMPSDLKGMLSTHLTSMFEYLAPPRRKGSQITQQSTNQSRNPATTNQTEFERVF
T1 sequence (O60563 whole entry partner): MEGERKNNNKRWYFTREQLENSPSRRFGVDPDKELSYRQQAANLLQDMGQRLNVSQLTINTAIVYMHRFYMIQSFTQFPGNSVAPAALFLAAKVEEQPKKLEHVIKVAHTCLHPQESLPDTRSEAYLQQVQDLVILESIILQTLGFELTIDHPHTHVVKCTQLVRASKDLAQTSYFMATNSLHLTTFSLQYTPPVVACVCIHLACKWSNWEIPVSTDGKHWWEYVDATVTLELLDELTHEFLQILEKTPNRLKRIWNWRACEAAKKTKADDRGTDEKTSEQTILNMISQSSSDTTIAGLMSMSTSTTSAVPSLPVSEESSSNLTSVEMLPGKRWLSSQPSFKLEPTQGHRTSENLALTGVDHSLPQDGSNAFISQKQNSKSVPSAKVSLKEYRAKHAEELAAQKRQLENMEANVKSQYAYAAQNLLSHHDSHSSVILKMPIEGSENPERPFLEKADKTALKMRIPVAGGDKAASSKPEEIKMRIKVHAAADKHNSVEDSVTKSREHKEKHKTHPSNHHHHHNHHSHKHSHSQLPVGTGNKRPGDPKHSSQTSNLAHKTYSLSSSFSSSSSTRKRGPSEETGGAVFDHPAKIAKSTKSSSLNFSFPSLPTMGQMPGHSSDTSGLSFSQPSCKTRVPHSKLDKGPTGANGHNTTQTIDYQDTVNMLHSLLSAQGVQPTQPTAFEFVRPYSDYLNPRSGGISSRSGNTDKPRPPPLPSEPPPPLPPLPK

Compound: CC[C@H](CO)Nc1nc(NCc2ccccc2)c2ncn(C(C)C)c2n1 [roscovitine]
- inhibitory activity against CDKs 4 and 6 (CDKs): no inhibitory activity
- selectivity for a specific CDK (CDKs): greater selectivity for CDKs 1, 2 and 5

- pIC50 (CDK9/CycT): 7.42
- pIC50 (TNF α; Homo sapiens, deduced from the % reduction data): > 5.52
Compound: COc1ccccc1-c1ccnc(Nc2cccc(S(C)(=O)=O)c2)n1 [Compound #133]
- TNF α levels reduced (TNF α; 0.3 μM): 15%
- TNF α levels reduced (TNF α; 3 μM): 60%
- TNF α levels reduced (TNF α; 10 μM): 85%
- TNF α levels reduced (TNF α; 30 μM): 94%
- reduction of LPS-induced TNFα level (signalα signal) compared to the DMSO vehicle control (TNFα): 50%
- signalα signal compared to the DMSO (vehicle control) ([1]; at each concentration, FIG. 4): significantly reduced
- effect on TNFα and IL6 protein concentration in the cell supernatant versus vehicle (DMSO) ([1]; differentiated THP-1 cells, 60 min pre-incubation, LPS 4-48 h): significant inhibitory effect
- reduction of LPS-induced cytokine levels (TNFα, IL6, IL1β) ([1]; differentiated THP-1 cells, LPS 100 ng/ml, supernatant ELISA, FIG. 4): up to 100%

Compound: CCn1cnc2c(Nc3cccc(Cl)c3)nc(N[C@@H]3CCCC[C@@H]3N)nc21 [CGP74514A]
- inhibitory activity against CDKs 4 and 6 (CDKs): no inhibitory activity
- selectivity for a specific CDK (CDKs): greater selectivity for CDKs 1, 2 and 5

Compound: purvanolols
- inhibitory activity against CDKs 4 and 6 (CDKs): no inhibitory activity
- selectivity for a specific CDK (CDKs): greater selectivity for CDKs 1, 2 and 5

Compound: CN1CC[C@H](c2c(O)cc(O)c3c(=O)cc(-c4ccccc4Cl)oc23)[C@H](O)C1 [Flavopiridol]
- selectivity for a specific CDK (CDKs): not particularly selective for a specific CDK
